Results on three compounds are retold here after patent publication US20180369186A1, “METHOD FOR MODULATING AUTOPHAGY AND APPLICATIONS THEREOF” (JAWAHARLAL NEHRU CENTRE FOR ADVANCED SCIENTIFIC RESEARCH, priority 2015, published 2018).

A short description of data set [1]: Rotarod test in MPTP mice. It is filed as in vivo. As to conditions: 5 mg/kg. The procedure:
All the behavioural experiments are done on 3-4 month old, male C57/B16 mice. Experimenters are blind to the drug injected animals. Experimenters handle mice used for behavioral experiments for 3 consecutive days prior to the training paradigm. Behavioral experiments are designed in an order of low to high stress activity for mice. Therefore, Open Field Test is conducted in forenoon while rotarod is performed in the afternoon.
Mice were habituated to the behaviour room for 15 minutes every day before start of experiments. The light intensity is maintained at 100 lux throughout the experiment. Mice are weighed every day before training or test to ensure their good health. Mice are randomly allocated into three treatment cohorts: placebo control, MPTP and 6-Bio. Data is plotted using GraphPad prism 5 software.
The rotarod instrument is custom made at the Mechanical workshop, National Centre of Biological Sciences, Bengaluru, India. The rotating rod (diameter 3.3 cm) is made of Delrin and is textured to enhance the grip of mice. The rod is fixed at a height of 30 cm from the cushioned platform where mice fell on to during training and test. The rod is partitioned into three areas of 9.3 cm distance between each partition using discs (40 cm diameter) made of Teflon. […] The entire trial is video recorded using a DSLR camera (Nikon D5100) and latencies are scored manually. […]

For data set [2], the system named is lysosome. Kind of data set: Lysosomal function (lysotracker, LAMP1) in HeLa cells. It is filed as cell-based, human.
The subject of data set [3] is lace plant (Aponogeton madagascariensis) cells. Kind of data set: Lace plant leaf MDC staining of punctate structures. In kind it is cell-based. The method, then: Axenic lace plant cultures are grown in magenta boxes and prepared according to Gunawardena et al. Leaves in the window stage are removed from the corm and rinsed thoroughly with distilled water prior to being sectioned into 2 mm^2 pieces. For starvation treatments, window stage leaves are removed from the plant, placed in distilled water and kept in the dark overnight.
Leaf sections are stained with monodansylcadaverine (MDC; 300 μM) (Sigma, D4008) and simultaneously treated with autophagy modulators for 2 hours in the dark. (1 hour vacuum infiltration at 15 psi). Treatment times, along with stain and modulator applications are optimized using concentration gradients followed by microscopy. The optimized concentrations are 5 μM rapamycin (Enzo Life Sciences (BML A275-0005), 5 μM wortmannin (Santa Cruz Biotechnology, sc-3505), 1 μM concanamycin A (Santa Cruz Biotechnology, sc-202111), 50 μM Bay 11 (Sigma, B5556) and 50 μM ZPCK (Sigma, 860794).
Tissue sections are then rinsed and mounted in distilled water prior to being scanned using a Nikon Eclipse Ti confocal microscope (Nikon 40X/1.30, Plan Fluor, 405 nm excitation and 450/30 nm emission). Areoles in the early phases of PCD are scanned to avoid cellular debris. The mean number of puncta are quantified for each treatment group with a minimum of four independent experiments using NIS Elements Advanced Research software. Additionally, starvation treatment leaves are also exposed to 5 μM, wortmannin, 50 μM Bay11 and 50 μM ZPCK treatments and then qualitatively assessed via confocal microscopy.

The test system of data set [4] is p62. Description: p62 co-localization with mRFP-MAP1LC3B in HeLa cells. In kind it is cell-based, human. The procedure:
Appropriate number of cells are plated on top of coverslips placed in 65 mm cell culture dishes for transfection. Transfected cells are divided into different treatment groups. Post treatment, cells are washed with PBS and fixed in 4% paraformaldehyde and permeabilized using 0.25% Triton X-100, Overnight incubation with Anti-p62/SQSTM1 (rabbit polyclonal, #PM045), Anti-EEA1 (rabbit polyclonal, CST #3288) is done at 4° C. Excess antibody is washed with PBS and coverslips are incubated with Atto-633 (goat anti-rabbit IgG, Sigma #41176). The coverslips are mounted with […] antifade reagent (H-1000/H-1200, Vector laboratories). Imaging for HeLa cells is carried out using Delta vision microscope (Olympus 60×/1.42, Plan ApoN, excitation and emission filter Cy5, FITC and TRITC, polychroic Quad).
ImageJ software (NIH) is used to calculate the mean intensity. Images are opened using the split channel plugin. Co-localization plugin in the analysis tools is used to obtain the colocalized area between two channels as a separate window. The intensity is calculated using the measure plugin in analysis tools.

Data set [5] has as its system Pot1-GFP (peroxisomes). Kind of data set: Pot1-GFP pexophagy assay. In kind it is cell-based, S. cerevisiae. The procedure: Pot1-GFP positive strains are allowed to grow till the A600 reached 0.8-1 in YPD. Peroxisome biogenesis is induced by growing these cells in oleate medium (0.1% oleate, 0.5% Tween-40, 0.25% yeast extract, 0.5% peptone, and 5 mM phosphate buffer) for 12hours. Cells are harvested, washed twice to remove traces of oleate and transferred to starvation medium without nitrogen, at inoculum density A600 3, to induce pexophagy. Cells are collected at various time intervals after pexophagy induction and processed by TCA method.
Pot1-GFP positive strains are allowed to grow in yeast extract peptone dextrose (YPD) (2% dextrose, 2% peptone and 1% yeast extract) till the Absorbance at 600 nm reaches 0.6-0.8. Peroxisome biogenesis is induced by growing these cells in YPG medium (1% yeast extract, 2% peptone, 3% glycerol) for 12 hours.
Cells are harvested, washed twice to remove traces of oleate and transferred to starvation medium with and without Acacetin, at. inoculum density Absorbance at 600 nm 3/ml, to induce pexophagy. Cells are collected at various time intervals after pexophagy induction and processed by TCA precipitation.

Data set [6] relates to Atg8 and Atg5. Kind of data set: Co-localization of GFP-Atg8 and Atg5-RedStar in yeast. In kind it is cell-based, S. cerevisiae.
Data set [7] concerns HeLa and SH-SY5Y cells. Kind of data set: Cell viability of HeLa and SH-SY5Y after 72 h (CellTitre Glo). As to conditions: various concentrations. It is filed as cell-based, human. The procedure:
In another embodiment of the present disclosure, FIG. 47 illustration non-toxicity of XCT 790 to cells (Hela and SHSY5Y) and scheme for α-synculein toxicity assay. Cell viability of cell lines like HeLa (a) and SH-SY5Y (b) after 72 h of XCT 790 treatments for various indicated concentrations. Cell viability was assayed using CellTitre Glo (Promega) kit.

Turning to `O=C1Nc2cc(Br)ccc2/C1=C1/Nc2ccccc2/C1=N\O` [6-Bio, (2′Z,3′E)-6-Bromoindirubin-3′-oxime], in data set [1] (MPTP+Co, day 13), the “latency to fall, Co versus MPTP” value was “increased”. For the same compound, the “latency to fall, Post versus MPTP” value in data set [1] (administered after 48 h MPTP) was “not protected”. Further, in data set [2], the “LAMP1 positive vesicle intensities and distribution” value is “unaltered”. In data set [2] (2 h), the “lysotracker staining (lysosome acidification)” value is “no change in lysosome acidification”.

Take `Cc1ccc(S(=O)(=O)/C=C/C#N)cc1` [Bay11, 3-[(4-methylphenyl)sulfonyl]-(2E)-propenenitrile]: the “mean number of punctate structures per cell (MDC)” value in data set [3] (2 hours, 5 μM wortmannin, 50 μM Bay11, 1 μM concanamycin A, rapamycin, 50 μM ZPCK, control 0.99±0.12) was 0.28±0.07. Moreover, the “puncta in overnight starvation leaves” value in data set [3] (overnight starvation combined with 5 μM wortmannin, 50 μM Bay11 or 50 μM ZPCK) is on record as “fewer puncta”. The “p62 accumulation relative to mRFP-MAP1LC3B-positive compartments” value in data set [4] was “outside”. The “degradation of peroxisomes (Pot1-GFP)” value in data set [5] (starvation) is reported as “delay the degradation of peroxisomes”. Also, in data set [5] (starvation, 25 μM Bay11, 50 μM ZPCK), the “localisation of peroxisomes (fluorescence microscopy)” value is given as “accumulate outside the vacuoles”. Further, the “free GFP release from Pot1-GFP” value in data set [5] (wild type cells, up to 6 hours of starvation) is reported as “No free GFP release”. For the same compound, in data set [6] (vs single puncta in untreated cells), the Atg5 punctate structures entry is on record as “multiple puncta”. Besides, the “co-localization between Atg8 and Atg5 dots” value in data set [6] (vs untreated cells) is reported as “significantly more co-localization”.

Consider `COc1cc(C=C(C#N)C(=O)Nc2nnc(C(F)(F)F)s2)ccc1OCc1ccc(C(F)(F)F)cc1C(F)(F)F` [XCT 790, 3-[4-(2,4-Bis-trifluoromethylbenzyloxy)-3-methoxyphenyl]-2-cyano-N-(5-trifluoromethyl-1,3,4-thiadiazol-2-yl)acrylamide], for which, in data set [7], the toxicity to cells entry was “non-toxicity”.
